Measured values reported in publication PMC12722920, “Pharmacokinetics and pharmacodynamics of cannabigerol (CBG) in the C57BL/6Crl mouse” (Frontiers in Pharmacology, 2025).
Where two headings read alike, the source gives them in different places.

What was measured:
C57BL/6Crl mice [1] = assay: Open field test (OFT): locomotion and anxiety-like behaviour; format: in vivo; conditions: for OFT time in the center: compared to the vehicle
Experimental: Catalepsy was assessed in the ring holding assay; mice were positioned with their forepaws grasping onto a 0.5 cm thick ring clamp elevated 5 cm above the testing surface. The duration of time while the ring was held was recorded in seconds, with each trial terminated if the mouse’s forepaw released from the bar, upon turning of the head or body, or after 60 s of immobility. Catalepsy was evaluated three times consecutively, and the average time spent holding the bar was reported as a percent of the maximum possible effect (% MPE, up to 60 s). Internal body temperature was measured via a rectal thermometer. Nociception was determined by assessing tail-flick latency, where mice were restrained with their tails placed ∼1 cm into 52 °C ± 2 °C water. The time (sec) until the tail was removed was measured, with observations ending at 20 s and represented as a % MPE. Locomotion and anxiety-like behaviour were assessed in the OFT. Mice were placed in an open space (90 cm × 90 cm) and recorded for 5 min. Total distance travelled (cm), velocity (cm/sec), time in the centre quadrant (sec), and central quadrant entries were measured with EthoVision XT (Noldus Information Technology Inc., Leesburg, VA).
In Phase I (Part B), after determining the timepoint at which blood CBG concentrations were highest for each respective route of administration, the timing for each measure in the tetrad was adjusted. An assessment was conducted in a new cohort consisting of both male and female mice (n = 4 per sex per route) receiving a dose of 10 mg/kg of CBG via i.v., i.p., or p.o. routes. For those administered with i.v. CBG, the timing was: catalepsy at 5 min, body temperature at 15 min, tail-flick latency at 20 min, and OFT at 25 min post-injection. For i.p. CBG, measurements were taken at 20 min for catalepsy, 25 min for body temperature, 30 min for tail-flick latency, and 35 min for OFT post-injection. For p.o. CBG, data collection was scheduled as follows: catalepsy at 170 min, body temperature at 175 min, tail-flick latency at 180 min, and OFT at 185 min post-injection.

[2] = ref Zagzoog et al., 2024, cited from earlier work
[3] = THC 10 mg/kg i.v.; ref Zagzoog et al., 2024; cited from earlier work
C57BL/6Crl mice [4] = tested on: C57BL/6Crl mice; parameters: method as in Zagzoog et al., 2024; conditions: THC, ref Zagzoog et al., 2024, cited from earlier work
C57BL/6Crl mice [5] = tested on: C57BL/6Crl mice; parameters: method as in Zagzoog et al., 2024; conditions: THC, ref Zagzoog et al., 2024, cited from earlier work; remark: listed apart in the source
C57BL/6Crl mice [6] = tested on: C57BL/6Crl mice; parameters: method as in Zagzoog et al., 2024; conditions: THC, ref Zagzoog et al., 2024, cited from earlier work; remark: listed apart in the source

For `CCCCCc1cc(O)c2c(c1)OC(C)(C)[C@@H]1CCC(C)=C[C@@H]21` [THC, Δ^9-Tetrahydrocannabinol], the “OFT entries to the center” value (C57BL/6Crl mice [1]; 10 mg/kg i.p., compared to vehicle) was “entered the center fewer times than their vehicle-treated counterparts”, the OFT velocity (C57BL/6Crl mice [1]; 10 mg/kg i.v., 25 min post-administration, male and female mice) was “reduced velocity compared to vehicle treatment” and the “OFT time in the center” value (C57BL/6Crl mice [1]; 10 mg/kg i.v.) was “Time in the center was reduced”. The “OFT entries to the center” value (C57BL/6Crl mice [1]; 10 mg/kg i.v., compared to vehicle) was “entered the center fewer times than their vehicle-treated counterparts”, the “OFT entries to the center” value (C57BL/6Crl mice [1]; 10 mg/kg p.o.) was “entered the center of the OFT fewer times than vehicle oral gavage mice” and the “OFT time in the center” value (C57BL/6Crl mice [1]; 10 mg/kg p.o.) was “Time in the center was reduced”. For the same compound, the Cmax ([2]; 10 mg/kg THC i.p.) was 377 ng/mL, the “C at 10 min (blood concentration 10 min post-administration)” value ([2]; THC i.v., males) was 1,290 ng/mL and the Cmax ([2]; THC p.o.) was 149.5 ng/mL. The “p.o. Cmax as percent of i.p. Cmax” value ([2]; THC) was 40%, the mean blood concentration [3] was 526 ng/mL and the ED50 catalepsy (C57BL/6Crl mice [4]; both sexes) was 6.9 mg/kg. The ED50 catalepsy (C57BL/6Crl mice [4]; females) was 6.0 mg/kg, the ED50 catalepsy (C57BL/6Crl mice [4]; males) was 8.6 mg/kg and the ED50 body temperature (C57BL/6Crl mice [5]; both sexes) was 7.8 mg/kg. The ED50 body temperature (C57BL/6Crl mice [5]; females) was 7.3 mg/kg, the ED50 body temperature (C57BL/6Crl mice [5]; males) was 8.3 mg/kg and the ED50 tail-flick latency (C57BL/6Crl mice [6]; both sexes) was 4.1 mg/kg. The ED50 tail-flick latency (C57BL/6Crl mice [6]; females) was 3.6 mg/kg and the ED50 tail-flick latency (C57BL/6Crl mice [6]; males) was 4.9 mg/kg.
